According to publication PMC6013238, “Development of novel NEMO-binding domain mimetics for inhibiting IKK/NF-κB activation” (PLoS Biology, 2018):
“And” between values parts separate entries of the source, which are not always exact repeats. Identical values can stand only once.

How the values were obtained:
[1] = tested on: NF-κB DNA binding activity; experiment: EMSA of NF-κB DNA binding activity in muscle of mdx mice after a single i.p. dose; format: in vivo, mouse; details: for NF-κB DNA binding activity in quadriceps (EMSA): mdx mice, single i.p. 10 mg/kg, 1 h and 2 h post injection
Protocol: To confirm that the NBD mimetics reduce IKK kinase activity, phosphorylation of IκBα by IKK in response to 10 ng/ml of TNF-α was measured by western blot at 0, 5, and 10 min after stimulation. […] To determine whether the mimetics also reduce NF-κB DNA binding activity, electrophoretic mobility shift assay (EMSA) was conducted both in vitro and in vivo. […] The addition of acetonitrile increased the stability of both ZINC compounds, especially ZINC 5 (Fig 3D).
Fig 3 Two identified small molecules reduce NF-κB DNA binding activity in vivo and in vitro. (A) Levels of p-IκBα with or without treatment in response to TNF-α were determined by western blot analysis. HEK293 cells were pretreated with DMSO, ZINC12909780 (100 μM), and ZINC5 (100 μM) for 30 min followed by the stimulation of 10 ng/ml of TNF-α for 0, 5, and 10 min. Cell lysates were prepared for immunoblot against p-IκBα. GAPDH was used as a loading control. (B) EMSA analysis detecting NF-κB DNA binding activity was performed in C2C12 myoblasts. Cells were pretreated with 200 μM of DMSO, ZINC12909780, and ZINC5 in serum-free media for 1 h. TNF-α was then added to a final concentration of 10 ng/ml and incubated for 15 min. Nuclear extract was obtained for EMSA analysis. (C) EMSA analysis assessing NF-κB DNA binding activity in vivo was performed with quadriceps from mdx mice. […] Quadriceps was harvested at 1 h and 2 h post injection for EMSA analysis. (D) The time-course pharmacokinetics of ZINC5 and ZINC12909780 in FBS media or FBS media containing acetonitrile. Underlying data can be found in S1 Data. EMSA, electrophoretic mobility shift assay; HEK293, human embryonic kidney 293 cells; i.p., intraperitoneal; NF-κB, nuclear factor κB; t1/2, half-life; TNF-α; tumor necrosis factor α. […]
Supplementary file pbio.2004663.s005.tif: S4 Fig Chronic treatment with NBD mimetics improves muscle pathology by inhibiting NF-κB DNA binding activity in mdx mice. (A) Quantification of percentage of centralized myonuclei. […]

[2] = Serum AST, ALT and ALP of chronically treated mdx mice; format: in vivo, mouse; details: for Liver toxicity (serum AST, ALT, ALP): chronically treated mdx mice, 30 mg/kg; for ALP Final Concentration / ALT Final Concentration / AST Final Concentration: serum, individual mouse (FigS3B)

Structure (SMILES)	NF-κB DNA binding activity in quadriceps (EMSA) [1]	Liver toxicity (serum AST, ALT, ALP) [2]	ALP Final Concentration [2]	ALT Final Concentration [2]	AST Final Concentration [2]	NF-κB DNA binding in TA muscle (EMSA) ([1]; 9-wk-old mdx mice, single injection 30 mg/kg i.p., 2 h post injection)
O=C(COC(=O)Cc1ccccc1F)Nc1ccc(Cl)cn1 [ZINC5]	inhibited NF-κB DNA binding activity					
Nc1ncccc1C(=O)OCC(=O)Nc1ccc(Cl)cc1F [ZINC12909780]	inhibited NF-κB DNA binding activity					
O=C(CNCCc1cc(F)cc(F)c1)Nc1ccc(Cl)cn1 [SR12460]		no overt liver toxicity	195 U/L and 170 U/L and 160 U/L	215 U/L and 185 U/L	1245 U/L and 1330 U/L and 1415 U/L	
O=C(CNc1ccc(Cl)cn1)NCCc1cccc(Br)c1 [SR12343]		no overt liver toxicity	170 U/L and 225 U/L and 145 U/L	125 U/L and 160 U/L and 150 U/L and 260 U/L	775 U/L and 1030 U/L and 875 U/L and 1560 U/L	reduction in NF-κB DNA binding
